Read-outs that look alike come from different tables or passages of the source.
How the values were obtained:
[1] = target: cholinergic muscarine receptors; assay type: binding, rat
[2] = target: (mainly u.-type) opiate receptors (Rattus norvegicus, UniProt P33535); test: Affinity to opiate receptors: [3H]-naloxone displacement in rat brain homogenates; assay type: binding
[3] = [^3H] QNB displacement expressed in Ki; homogenates of rat brains; read-out: Affinity to muscarine receptors 2)

(mainly u.-type) opiate receptors, sequence (P33535 whole entry): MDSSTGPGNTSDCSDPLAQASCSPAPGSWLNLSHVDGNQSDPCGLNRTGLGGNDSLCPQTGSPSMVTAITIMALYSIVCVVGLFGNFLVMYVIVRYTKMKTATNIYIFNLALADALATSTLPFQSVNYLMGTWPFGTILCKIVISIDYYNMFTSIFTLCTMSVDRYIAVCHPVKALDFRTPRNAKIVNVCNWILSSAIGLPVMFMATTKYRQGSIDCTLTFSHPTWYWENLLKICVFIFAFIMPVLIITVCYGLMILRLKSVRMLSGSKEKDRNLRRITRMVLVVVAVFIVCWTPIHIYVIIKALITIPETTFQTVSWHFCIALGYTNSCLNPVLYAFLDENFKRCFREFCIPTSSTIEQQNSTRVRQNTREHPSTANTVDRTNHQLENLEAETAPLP

Structure (SMILES): CCCC(=O)CCCN(CC)C(C)Cc1ccc(OC)cc1 (racemic) [e, reference compound]
- Ki [1, 3]: 28 nM

Structure (SMILES): CCN(CCCC(=O)C1CCCCC1)[C@@H](C)Cc1ccc(O)cc1 [d]
- Ki [1, 3]: 4.1 nM
- muscarinolytic activity ([1]; pure R and S isomers of racemic compound b compared): found substantially exclusively in the S isomer

Structure (SMILES): CCCN(CCCC(=O)C1CCCCC1)C(C)Cc1ccc(O)cc1 (racemic) [a]
- Ki [1, 3]: 5.2 nM

Structure (SMILES): CCN(CCCC(=O)C1CCCCC1)C(C)Cc1ccc(OC)cc1 (racemic) [g, reference compound]
- Ki [1, 3]: 2.7 nM

Structure (SMILES): CCN(CCCC(=O)C1CCCCC1)[C@H](C)Cc1ccc(O)cc1 [c]
- opiate-antagonistic activity [2]: found substantially entirely in the R isomer
- Ki [1, 3]: 450 nM

Structure (SMILES): CCN(CCCC(=O)C1CCCCC1)C(C)Cc1ccc(O)cc1 (racemic) [b]
- Ki [1, 3]: 9.6 nM

Structure (SMILES): CCN(CCCC(=O)C1CCCCC1)C(C)Cc1ccc(Cl)cc1 (racemic) [f, reference compound]
- Ki [1, 3]: 8.3 nM

Structure (SMILES): CN1[C@@H]2CC[C@H]1C[C@@H](OC(=O)C(CO)c1ccccc1)C2 (stereo partly shown) [atropine, reference compound]
- Ki ([1]; read-out: Affinity to muscarine receptors 2)): 1.4 nM
